Patent publication US20250145609A1, “3-SUBSTITUTED PYRIDAZINE COMPOUNDS AS SMARCA2 AND/OR SMARCA4 DEGRADERS” (Aurigene Oncology Limited, priority 2022, published 2025)

Key:
SMARCA2 = molecular target: T1, SMARCA2 (Homo sapiens, UniProt P51531); experiment: SMARCA2 degradation in VCaP cells by Western blot; type: cell-based; details: at 100 nM, 16 hours
T1 construct: endogenous in cells; host or cells: VCaP (ATCC CRL-2876)
Description: (§1) Example-P2: Determination of SMARCA2 and SMARCA4 Degradation in VCaP Cells by Western Blot
(§2) VCaP (ATCC CRL-2876) was plated in 6 well plates using complete Dulbecco's Modified Eagle's Medium. On the third day, compounds of present invention were added to cells from 10 mM stocks made in DMSO (Sigma Cat no. D2650). Each compound was tested at 100 nM concentration with DMSO not exceeding final percentage of 0.3 in the cells. Cells were incubated with the compound for 16 hours followed by harvesting with 1×RIPA lysis buffer (Thermo Fischer, catalogue number #89900) containing protease inhibitor cocktail (Sigma catalogue number #P-8340). Equal amount of protein was loaded on SDS PAGE gel for electrophoresis. Western blot was carried out for detection of either SMARCA2 (Cell signalling technologies, catalogue number #11966) or SMARCA4 antibody (Cell signalling technologies, catalogue number #52251). Beta-Tubulin antibody (Cell signalling technologies, catalogue number #86298) was used as loading control. Percentage of SMARCA2 or SMARCA4 degradation was calculated by using formula: […]

SMARCA4 = molecular target: T2, SMARCA4 (Homo sapiens, UniProt P51532); experiment: SMARCA4 degradation in VCaP cells by Western blot; type: cell-based; details: at 100 nM; for Percent SMARCA4 degradation at 0.1 µM: VCaP, 16 h; for Percent degradation SMARCA4: 16 hours
T2 construct: endogenous in cells; host or cells: VCaP (ATCC CRL-2876)
Description: as §1, §2

T2 sequence (P51532 whole entry): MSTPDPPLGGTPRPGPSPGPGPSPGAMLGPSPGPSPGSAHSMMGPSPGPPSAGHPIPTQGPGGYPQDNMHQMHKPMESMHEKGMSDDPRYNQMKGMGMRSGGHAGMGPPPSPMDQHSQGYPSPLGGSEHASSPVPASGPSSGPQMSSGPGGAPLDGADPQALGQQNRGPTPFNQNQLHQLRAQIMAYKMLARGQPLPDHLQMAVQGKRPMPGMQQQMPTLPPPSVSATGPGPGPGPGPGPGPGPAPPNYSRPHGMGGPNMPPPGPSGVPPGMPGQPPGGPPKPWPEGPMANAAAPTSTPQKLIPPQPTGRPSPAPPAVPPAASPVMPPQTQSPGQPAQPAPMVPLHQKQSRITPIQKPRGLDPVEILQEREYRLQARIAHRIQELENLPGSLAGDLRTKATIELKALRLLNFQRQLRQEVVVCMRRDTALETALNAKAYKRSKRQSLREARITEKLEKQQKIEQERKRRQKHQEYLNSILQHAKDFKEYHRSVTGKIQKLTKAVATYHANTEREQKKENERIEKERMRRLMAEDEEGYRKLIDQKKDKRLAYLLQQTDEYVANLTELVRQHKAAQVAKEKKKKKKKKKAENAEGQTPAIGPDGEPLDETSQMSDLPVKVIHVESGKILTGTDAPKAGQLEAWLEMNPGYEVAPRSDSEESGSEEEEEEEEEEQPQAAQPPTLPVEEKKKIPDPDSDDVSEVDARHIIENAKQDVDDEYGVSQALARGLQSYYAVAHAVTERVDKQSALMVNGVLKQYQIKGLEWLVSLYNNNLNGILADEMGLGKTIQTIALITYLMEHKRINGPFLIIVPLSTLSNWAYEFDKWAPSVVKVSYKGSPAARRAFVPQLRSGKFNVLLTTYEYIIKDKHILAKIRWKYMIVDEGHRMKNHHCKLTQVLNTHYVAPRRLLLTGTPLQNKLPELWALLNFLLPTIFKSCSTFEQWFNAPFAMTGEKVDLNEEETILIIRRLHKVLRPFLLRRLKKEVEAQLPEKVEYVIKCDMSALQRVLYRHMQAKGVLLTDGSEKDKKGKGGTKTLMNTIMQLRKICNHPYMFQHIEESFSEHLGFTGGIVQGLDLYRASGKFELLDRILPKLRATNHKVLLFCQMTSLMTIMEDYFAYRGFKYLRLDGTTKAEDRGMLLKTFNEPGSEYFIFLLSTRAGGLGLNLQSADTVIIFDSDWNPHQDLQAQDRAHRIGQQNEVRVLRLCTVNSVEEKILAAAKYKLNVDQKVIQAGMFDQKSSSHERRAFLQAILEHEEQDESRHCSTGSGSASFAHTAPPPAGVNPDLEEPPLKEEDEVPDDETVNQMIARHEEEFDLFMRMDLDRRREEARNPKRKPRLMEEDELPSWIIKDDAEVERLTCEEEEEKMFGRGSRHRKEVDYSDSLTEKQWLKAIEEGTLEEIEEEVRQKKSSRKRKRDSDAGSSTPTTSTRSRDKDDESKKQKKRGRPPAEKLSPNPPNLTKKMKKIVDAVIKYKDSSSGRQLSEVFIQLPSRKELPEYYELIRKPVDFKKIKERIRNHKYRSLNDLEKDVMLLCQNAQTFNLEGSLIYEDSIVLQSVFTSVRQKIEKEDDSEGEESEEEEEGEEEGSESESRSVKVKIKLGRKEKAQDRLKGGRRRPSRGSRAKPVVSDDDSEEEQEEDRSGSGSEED
T1 sequence (P51531 whole entry): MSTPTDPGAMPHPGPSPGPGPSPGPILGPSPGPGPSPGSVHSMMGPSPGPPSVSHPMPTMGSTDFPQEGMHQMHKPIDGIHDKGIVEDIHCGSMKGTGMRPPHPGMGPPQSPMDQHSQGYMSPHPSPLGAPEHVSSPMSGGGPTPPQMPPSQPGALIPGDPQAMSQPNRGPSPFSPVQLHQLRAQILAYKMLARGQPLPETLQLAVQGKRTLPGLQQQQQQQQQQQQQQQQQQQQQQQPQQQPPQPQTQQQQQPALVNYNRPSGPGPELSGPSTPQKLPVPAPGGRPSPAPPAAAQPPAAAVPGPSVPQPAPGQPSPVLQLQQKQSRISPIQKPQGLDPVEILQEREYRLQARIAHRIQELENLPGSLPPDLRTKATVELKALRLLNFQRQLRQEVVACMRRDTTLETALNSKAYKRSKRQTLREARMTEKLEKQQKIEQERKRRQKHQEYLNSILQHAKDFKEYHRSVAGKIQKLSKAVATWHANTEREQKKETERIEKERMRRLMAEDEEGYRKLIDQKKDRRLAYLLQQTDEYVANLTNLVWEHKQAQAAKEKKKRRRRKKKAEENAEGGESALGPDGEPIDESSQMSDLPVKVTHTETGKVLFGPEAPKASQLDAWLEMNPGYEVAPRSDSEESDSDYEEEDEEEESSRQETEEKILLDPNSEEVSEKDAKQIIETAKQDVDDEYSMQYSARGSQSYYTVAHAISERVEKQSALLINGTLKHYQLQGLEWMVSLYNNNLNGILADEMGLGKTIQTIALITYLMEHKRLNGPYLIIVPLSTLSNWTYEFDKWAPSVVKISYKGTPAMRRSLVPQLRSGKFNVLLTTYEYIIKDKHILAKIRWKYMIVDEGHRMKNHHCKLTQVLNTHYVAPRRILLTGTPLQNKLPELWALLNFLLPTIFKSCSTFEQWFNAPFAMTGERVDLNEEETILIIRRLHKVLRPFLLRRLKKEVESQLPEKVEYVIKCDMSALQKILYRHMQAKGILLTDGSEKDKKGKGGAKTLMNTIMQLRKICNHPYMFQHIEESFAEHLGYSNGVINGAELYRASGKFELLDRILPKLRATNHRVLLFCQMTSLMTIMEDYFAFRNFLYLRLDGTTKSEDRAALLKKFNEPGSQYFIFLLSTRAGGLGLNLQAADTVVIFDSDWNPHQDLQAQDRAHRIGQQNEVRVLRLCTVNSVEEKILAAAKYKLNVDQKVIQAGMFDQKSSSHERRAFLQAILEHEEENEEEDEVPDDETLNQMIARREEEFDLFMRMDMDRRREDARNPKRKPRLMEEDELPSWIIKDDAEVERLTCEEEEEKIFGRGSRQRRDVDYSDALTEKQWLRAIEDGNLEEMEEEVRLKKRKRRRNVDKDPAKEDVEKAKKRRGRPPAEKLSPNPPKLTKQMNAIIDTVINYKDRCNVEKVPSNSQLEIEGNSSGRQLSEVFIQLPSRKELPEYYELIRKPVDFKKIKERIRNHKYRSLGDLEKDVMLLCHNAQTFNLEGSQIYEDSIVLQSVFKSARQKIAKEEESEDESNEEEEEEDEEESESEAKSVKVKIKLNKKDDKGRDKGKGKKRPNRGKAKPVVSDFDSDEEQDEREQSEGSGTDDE

Percent degradation SMARCA2 (SMARCA2) [%] | Percent SMARCA4 degradation at 0.1 µM (SMARCA4) [%] | Percent degradation SMARCA4 (SMARCA4) [%] | Compound
42 | 0 |  | Cc1ncsc1-c1ccc([C@H](C)NC(=O)[C@@H]2C[C@@H](O)CN2C(=O)[C@@H](NC(=O)C(C)N2CCC(c3ccc(-c4cc(-c5ccccc5O)nnc4N)cc3)CC2)C(C)(C)C)cc1 (single isomer, unassigned) [Compound 33]
100 |  | 97 | Cc1ncsc1-c1ccc([C@H](C)NC(=O)[C@@H]2C[C@@H](O)CN2C(=O)[C@@H](NC(=O)CN2CCC(c3ccc(-c4cc(-c5ccccc5O)nnc4N)cc3)CC2C)C(C)(C)C)cc1 (single isomer, unassigned) [Compound 37]
92 |  | 52 | Cc1ncsc1-c1ccc([C@H](C)NC(=O)[C@@H]2C[C@@H](O)CN2C(=O)[C@@H](NC(=O)C2CCC(c3ccc(-c4cc(-c5ccccc5O)nnc4N)cc3)CC2)C(C)(C)C)cc1 (single isomer, unassigned) [Compound 41]
97 |  | 92 | Cc1ncsc1-c1ccc([C@H](C)NC(=O)[C@@H]2C[C@@H](O)CN2C(=O)[C@@H](NC(=O)CC2CCC(c3ccc(-c4cc(-c5ccccc5O)nnc4N)cc3)CC2)C(C)(C)C)cc1 (single isomer, unassigned) [Compound 45]
98 | 11 |  | Cc1ncsc1-c1ccc([C@H](C)NC(=O)[C@@H]2C[C@@H](O)CN2C(=O)C(c2cc(-c3ccc(-c4cc(-c5ccccc5O)nnc4N)cc3)no2)C(C)C)cc1 (stereo partly drawn) [Compound 4, (2S,4R)-1-(2-(3-(4-(3-amino-6-(2-hydroxyphenyl)pyridazin-4-yl)phenyl)isoxazol-5-yl)-3-methylbutanoyl)-4-hydroxy-N—((S)-1-(4-(4-methylthiazol-5-yl)phenyl)ethyl)pyrrolidine-2-carboxamide]
57 | 62 |  | Cc1ncsc1-c1ccc([C@H](C)NC(=O)[C@@H]2C[C@@H](O)CN2C(=O)[C@H](c2cc(-c3ccc(-c4cc(-c5ccccc5O)nnc4N)cc3)no2)C(C)C)cc1 [Compound 5, (2S,4R)-1-((S)-2-(3-(4-(3-amino-6-(2-hydroxyphenyl)pyridazin-4-yl)phenyl)isoxazol-5-yl)-3-methylbutanoyl)-4-hydroxy-N—((S)-1-(4-(4-methylthiazol-5-yl)phenyl)ethyl)pyrrolidine-2-carboxamide]
0 | 18 |  | Cc1ncsc1-c1ccc([C@H](C)NC(=O)[C@@H]2C[C@@H](O)CN2C(=O)C(c2cc(-c3ccc(-c4cc(-c5ccccc5C(F)F)nnc4N)cc3)no2)C(C)C)cc1 (stereo partly drawn) [Compound 8, (2S,4R)-1-(2-(3-(4-(3-amino-6-(2-(difluoromethyl)phenyl)pyridazin-4-yl)phenyl)isoxazol-5-yl)-3-methylbutanoyl)-4-hydroxy-N-((S)-1-(4-(4-methylthiazol-5-yl)phenyl)ethyl)pyrrolidine-2-carboxamide]
30 | 62 |  | Cc1ncsc1-c1ccc([C@H](C)NC(=O)[C@@H]2C[C@@H](O)CN2C(=O)C(c2cc(-c3ccc(-c4cc(-c5ccccc5F)nnc4N)cc3)no2)C(C)C)cc1 (stereo partly drawn) [Compound 9, (2S,4R)-1-(2-(3-(4-(3-amino-6-(2-fluorophenyl)pyridazin-4-yl)phenyl)isoxazol-5-yl)-3-methylbutanoyl)-4-hydroxy-N-((S)-1-(4-(4-methylthiazol-5-yl)phenyl)ethyl)pyrrolidine-2-carboxamide]
27 | 38 |  | Cc1ncsc1-c1ccc([C@H](C)NC(=O)[C@@H]2C[C@@H](O)CN2C(=O)[C@@H](NC(=O)CN2CCN(c3ccc(-c4cc(Cl)nnc4N)cc3)CC2)C(C)(C)C)cc1 [Compound 13, (2S,4R)-1-((S)-2-(2-(4-(4-(3-amino-6-chloropyridazin-4-yl)phenyl)piperazin-1-yl)acetamido)-3,3-dimethylbutanoyl)-4-hydroxy-N—((S)-1-(4-(4-methylthiazol-5-yl)phenyl)ethyl)pyrrolidine-2-carboxamide]
8 | 16 |  | COc1ncccc1-c1cc(-c2ccc(N3CCN(CC(=O)N[C@H](C(=O)N4C[C@H](O)C[C@H]4C(=O)N[C@@H](C)c4ccc(-c5scnc5C)cc4)C(C)(C)C)CC3)cc2)c(N)nn1 [Compound 15, (2S,4R)-1-((S)-2-(2-(4-(4-(3-amino-6-(2-methoxypyridin-3-yl)pyridazin-4-yl)phenyl)piperazin-1-yl)acetamido)-3,3-dimethylbutanoyl)-4-hydroxy-N—((S)-1-(4-(4-methylthiazol-5-yl)phenyl)ethyl)pyrrolidine-2-carboxamide]
7 |  | 35 | Cc1ncsc1-c1ccc([C@H](C)NC(=O)[C@@H]2C[C@@H](O)CN2C(=O)C(c2cc(-c3ccc(-c4cc(-c5ccc[nH]c5=O)nnc4N)cc3)no2)C(C)C)cc1 (stereo partly drawn) [Compound 17]
98 | 93 |  | Cc1ncsc1-c1ccc([C@H](C)NC(=O)[C@@H]2C[C@@H](O)CN2C(=O)[C@@H](NC(=O)CCN2CCN(c3ccc(-c4cc(-c5ccccc5O)nnc4N)cc3)CC2)C(C)(C)C)cc1 [Compound 18, (2S,4R)-1-((S)-2-(3-(4-(4-(3-amino-6-(2-hydroxyphenyl)pyridazin-4-yl)phenyl)piperazin-1-yl)propanamido)-3,3-dimethylbutanoyl)-4-hydroxy-N—((S)-1-(4-(4-methylthiazol-5-yl)phenyl)ethyl)pyrrolidine-2-carboxamide]
98 | 97 |  | Cc1ncsc1-c1ccc([C@H](C)NC(=O)[C@@H]2C[C@@H](O)CN2C(=O)[C@@H](NC(=O)CCC#Cc2ccc(-c3cc(-c4ccccc4O)nnc3N)cc2)C(C)(C)C)cc1 [Compound 20, (2S,4R)-1-((S)-2-(5-(4-(3-amino-6-(2-hydroxyphenyl)pyridazin-4-yl)phenyl)pent-4-ynamido)-3,3-dimethylbutanoyl)-4-hydroxy-N-((S)-1-(4-(4-methylthiazol-5-yl)phenyl)ethyl)pyrrolidine-2-carboxamide]
2 | 7 |  | Cc1ncsc1-c1ccc([C@H](C)NC(=O)[C@@H]2C[C@@H](O)CN2C(=O)[C@@H](NC(=O)CC#Cc2ccc(-c3cc(Cl)nnc3N)cc2)C(C)(C)C)cc1 [Compound 22, (2S,4R)-1-((S)-2-(4-(4-(3-amino-6-chloropyridazin-4-yl)phenyl)but-3-ynamido)-3,3-dimethylbutanoyl)-4-hydroxy-N-((S)-1-(4-(4-methylthiazol-5-yl)phenyl)ethyl)pyrrolidine-2-carboxamide]
82 | 49 |  | Cc1ncsc1-c1ccc([C@H](C)NC(=O)[C@@H]2C[C@@H](O)CN2C(=O)[C@@H](NC(=O)CCCC#Cc2ccc(-c3cc(-c4cc(F)ccc4O)nnc3N)cc2)C(C)(C)C)cc1 [Compound 23, (2S,4R)-1-((S)-2-(6-(4-(3-amino-6-(5-fluoro-2-hydroxyphenyl)pyridazin-4-yl)phenyl)hex-5-ynamido)-3,3-dimethylbutanoyl)-4-hydroxy-N-((S)-1-(4-(4-methylthiazol-5-yl)phenyl)ethyl)pyrrolidine-2-carboxamide]
